According to patent publication US8937092B2, “Aryl or N-heteroaryl substituted methanesulfonamide derivatives as vanilloid receptor ligands” (Gruenenthal GmbH, priority 2011, dated 2015):

What follows are compounds tested against vanilloid receptor 1 (VR1/TRPV1 receptor) (Homo sapiens, UniProt Q8NER1) (assay: Functional FLIPR Ca2+ influx assay on vanilloid receptor 1, capsaicin (Cap) stimulus). Settings: Ki from IC50 by Cheng-Prusoff, read-out: (f) Ki (human being) [nM], Cap.
Assay type: cell-based
Method: Furthermore, preference may be given to compounds according to the invention that cause a 50 percent displacement of capsaicin, which is present at a concentration of 100 nM, in a FLIPR assay with CHO K1 cells which were transfected with the human VR1 gene at a concentration of less than 2,000 nM, preferably less than 1,000 nM, particularly preferably less than 300 nM, most particularly preferably less than 100 nM, even more preferably less than 75 nM, additionally preferably less than 50 nM, most preferably less than 10 nM.
In the process, the Ca^2+ influx is quantified in the FLIPR assay with the aid of a Ca^2+-sensitive dye (type Fluo-4, Molecular Probes Europe BV, Leiden, the Netherlands) in a fluorescent imaging plate reader (FLIPR, Molecular Devices, Sunnyvale, USA), as described hereinafter.
Pharmacological Methods I. Functional Testing Carried Out on the Vanilloid Receptor 1 (VRI/TRPV1 Receptor) […]
The number of cells in the suspension is set to 3×10^5 per mL and 150 μL of this suspension are in each case introduced into a recess in the cell culture plates coated as described hereinbefore. In the incubator the plates are left for two to three days at 37° C., 5% by volume of CO2 and 95% relative humidity. Subsequently, the cells are loaded with 2 μM of Fluo-4 and 0.01% by volume of Pluronic F127 (Molecular Probes Europe BV, Leiden, the Netherlands) in HBSS buffer (Hank's buffered saline solution, Gibco Invitrogen GmbH, Karlsruhe, Germany) for 30 min at 37° C., washed 3 times with HBSS buffer and after further incubation for 15 minutes at room temperature used for Ca^2+ measurement in a FLIPR assay. The Ca^2+-dependent fluorescence is in this case measured before and after the addition of substances (λex=488 nm, λem=540 nm). Quantification is carried out by measuring the highest fluorescence intensity (FC, fluorescence counts) over time.
The FLIPR protocol consists of 2 substance additions. First the compounds to be tested (10 μM) are pipetted onto the cells and the Ca^2+ influx is compared with the control (capsaicin 10 μM). This provides the result in % activation based on the Ca^2+ signal after the addition of 10 μM of capsaicin (CP). After 5 minutes' incubation, 100 nM of capsaicin are applied and the Ca^2+ influx is also determined.
Desensitising agonists and antagonists lead to suppression of the Ca^2+ influx. The % inhibition is calculated compared to the maximum achievable inhibition with 10 μM of capsazepine.
Triple analyses (n=3) are carried out and repeated in at least 3 independent experiments (N=4).
Starting from the percentage displacement caused by different concentrations of the compounds to be tested of general formula I, IC50 inhibitory concentrations which cause a 50-percent displacement of capsaicin were calculated. K, values for the test substances were obtained by conversion by means of the Cheng-Prusoff equation (Cheng, Prusoff; Biochem. Pharmacol. 22, 3099-3108, 1973).
The affinity of the compounds according to the invention for the vanilloid receptor 1 (VR1/TRPV1 receptor) was determined as described herein before (pharmacological method I).
The value after the “@” symbol indicates the concentration at which the inhibition (as a percentage) was respectively determined.

Row | Compound | Ki [nM]
1 | 2-(3-methyl-4-(methylsulfonamidomethyl)phenyl)-N-((2-m-tolyl-6-(trifluoromethyl)pyridin-3-yl)methyl)propanamide [Example 97] | 4
2 | Cc1cccc(-c2nc(C(F)(F)F)ccc2CNC(=O)Nc2ccc(CNS(C)(=O)=O)cc2)c1 [Example 2, N-(4-(3-((2-m-tolyl-6-(trifluoromethyl)pyridin-3-yl)methyl)ureido)benzyl)methanesulfonamide] | 10
3 | Cc1cccc(-c2nc(C(F)(F)F)ccc2CNC(=O)C(C)c2ccc(CNS(C)(=O)=O)cc2)c1 (centres unmarked) [Example 4, 2-(4-(methylsulfonamidomethyl)phenyl)-N-((2-m-tolyl-6-(trifluoromethyl)pyridin-3-yl)methyl)propanamide] | 66
4 | CC(C(=O)NCc1ccc(C(F)(F)F)nc1-c1ccccc1)c1ccc(CNS(C)(=O)=O)c(F)c1 (centres unmarked) [Example 5, 2-(3-fluoro-4-(methylsulfonamidomethyl)phenyl)-N-((2-phenyl-6-(trifluoromethyl)pyridin-3-yl)methyl)propanamide] | 31
5 | CC(C(=O)NCc1ccc(C(F)(F)F)nc1-c1cccc(F)c1)c1ccc(CNS(C)(=O)=O)c(F)c1 (centres unmarked) [Example 7, 2-(3-fluoro-4-(methylsulfonamidomethyl)phenyl)-N-((2-(3-fluorophenyl)-6-(trifluoromethyl)pyridin-3-yl)methyl)propanamide] | 61
6 | CC(C(=O)NCc1ccc(C(F)(F)F)nc1-c1ccc(F)cc1)c1ccc(CNS(C)(=O)=O)c(F)c1 (centres unmarked) [Example 8, 2-(3-fluoro-4-(methylsulfonamidomethyl)phenyl)-N-((2-(4-fluorophenyl)-6-(trifluoromethyl)pyridin-3-yl)methyl)propanamide] | 66
7 | CC(C(=O)NCc1ccc(C(F)(F)F)nc1-c1cccc(F)c1F)c1ccc(CNS(C)(=O)=O)c(F)c1 (centres unmarked) [Example 9, N-((2-(2,3-difluorophenyl)-6-(trifluoromethyl)pyridin-3-yl)methyl)-2-(3-fluoro-4-(methylsulfonamidomethyl)phenyl)propanamide] | 47
8 | CC(C(=O)NCc1ccc(C(F)(F)F)nc1-c1ccc(F)c(F)c1)c1ccc(CNS(C)(=O)=O)c(F)c1 (centres unmarked) [Example 10, N-((2-(3,4-difluorophenyl)-6-(trifluoromethyl)pyridin-3-yl)methyl)-2-(3-fluoro-4-(methylsulfonamidomethyl)phenyl)propanamide] | 17
9 | CC(C(=O)NCc1ccc(C(F)(F)F)nc1-c1cc(F)cc(F)c1)c1ccc(CNS(C)(=O)=O)c(F)c1 (centres unmarked) [Example 11, N-((2-(3,5-difluorophenyl)-6-(trifluoromethyl)pyridin-3-yl)methyl)-2-(3-fluoro-4-(methylsulfonamidomethyl)phenyl)propanamide] | 41
10 | CC(C(=O)NCc1ccc(C(F)(F)F)nc1-c1cc(F)ccc1F)c1ccc(CNS(C)(=O)=O)c(F)c1 (centres unmarked) [Example 12, N-((2-(2,5-difluorophenyl)-6-(trifluoromethyl)pyridin-3-yl)methyl)-2-(3-fluoro-4-(methylsulfonamidomethyl)phenyl)propanamide] | 42
11 | Cc1ccc(-c2nc(C(F)(F)F)ccc2CNC(=O)C(C)c2ccc(CNS(C)(=O)=O)c(F)c2)cc1F (centres unmarked) [Example 13, 2-(3-fluoro-4-(methylsulfonamidomethyl)phenyl)-N-((2-(3-fluoro-4-methylphenyl)-6-(trifluoromethyl)pyridin-3-yl)methyl)propanamide] | 26
12 | COc1ccc(-c2nc(C(F)(F)F)ccc2CNC(=O)C(C)c2ccc(CNS(C)(=O)=O)c(F)c2)cc1F (centres unmarked) [Example 14, 2-(3-fluoro-4-(methylsulfonamidomethyl)phenyl)-N-((2-(3-fluoro-4-methoxyphenyl)-6-(trifluoromethyl)pyridin-3-yl)methyl)propanamide] | 68
13 | CC(C(=O)NCc1ccc(C(F)(F)F)nc1-c1cccc(Cl)c1)c1ccc(CNS(C)(=O)=O)c(F)c1 (centres unmarked) [Example 15, N-((2-(3-chlorophenyl)-6-(trifluoromethyl)pyridin-3-yl)methyl)-2-(3-fluoro-4-(methylsulfonamidomethyl)phenyl)propanamide] | 10
14 | CC(C(=O)NCc1ccc(C(F)(F)F)nc1-c1ccc(F)c(Cl)c1)c1ccc(CNS(C)(=O)=O)c(F)c1 (centres unmarked) [Example 16, N-((2-(3-chloro-4-fluorophenyl)-6-(trifluoromethyl)pyridin-3-yl)methyl)-2-(3-fluoro-4-(methylsulfonamidomethyl)phenyl)propanamide] | 5
15 | C[C@H](C(=O)NCc1ccc(C(F)(F)F)nc1-c1ccc(F)c(Cl)c1)c1ccc(CNS(C)(=O)=O)c(F)c1 [Example 17, (S)—N-((2-(3-chloro-4-fluorophenyl)-6-(trifluoromethyl)pyridin-3-yl)methyl)-2-(3-fluoro-4-(methylsulfonamidomethyl)phenyl)propanamide] | 4
16 | Cc1cccc(-c2nc(C3CC3)ccc2CNC(=O)C(C)c2ccc(CNS(C)(=O)=O)c(F)c2)c1 (centres unmarked) [Example 20, N-((6-cyclopropyl-2-m-tolylpyridin-3-yl)methyl)-2-(3-fluoro-4-(methylsulfonamidomethyl)phenyl)propanamide] | 45
17 | Cc1cccc(-c2cc(C(C)(C)C)ccc2CNC(=O)C(C)c2ccc(CNS(C)(=O)=O)c(F)c2)c1 (centres unmarked) [Example 21, N-((5-tert-butyl-3′-methylbiphenyl-2-yl)methyl)-2-(3-fluoro-4-(methylsulfonamidomethyl)phenyl)propanamide] | 37
18 | Cc1cccc(-c2cc(C(F)(F)F)ccc2CNC(=O)C(C)c2ccc(CNS(C)(=O)=O)c(F)c2)c1 (centres unmarked) [Example 22, 2-(3-fluoro-4-(methylsulfonamidomethyl)phenyl)-N-((3′-methyl-5-(trifluoromethyl)biphenyl-2-yl)methyl)propanamide] | 23
19 | Cc1cccc(-c2nc(C(C)(C)C)ccc2CNC(=O)C(C)c2ccc(CNS(C)(=O)=O)c(F)c2)c1 (centres unmarked) [Example 23, N-((6-tert-butyl-2-m-tolylpyridin-3-yl)methyl)-2-(3-fluoro-4-(methylsulfonamidomethyl)phenyl)propanamide] | 24

Same assay, conditions: inhibition at 1 μM, read-out: (f) inhibition (human being), Cap, @1 μM

Row | Compound | inhibition at 1 µM [%]
20 | Cc1ccccc1-c1nc(C(F)(F)F)ccc1CNC(=O)C(C)c1ccc(CNS(C)(=O)=O)c(F)c1 (centres unmarked) [Example 19, 2-(3-fluoro-4-(methylsulfonamidomethyl)phenyl)-N-((2-o-tolyl-6-(trifluoromethyl)pyridin-3-yl)methyl)propanamide] | 18

Same assay, conditions: inhibition at 5 μM, read-out: (f) inhibition (human being), Cap, @5 μM

Row | Compound | inhibition at 5 µM [%]
21 | Cc1cccc(-c2nc(C(F)(F)F)ccc2CNC(=O)C(C)c2cccc(CNS(C)(=O)=O)c2)c1 (centres unmarked) [Example 1, 2-(3-(methylsulfonamidomethyl)phenyl)-N-((2-m-tolyl-6-(trifluoromethyl)pyridin-3-yl)methyl)propanamide] | 44
22 | CC(C(=O)NCc1ccc(C(F)(F)F)nc1-c1ccccc1F)c1ccc(CNS(C)(=O)=O)c(F)c1 (centres unmarked) [Example 6, 2-(3-fluoro-4-(methylsulfonamidomethyl)phenyl)-N-((2-(2-fluorophenyl)-6-(trifluoromethyl)pyridin-3-yl)methyl)propanamide] | 37
23 | C[C@@H](C(=O)NCc1ccc(C(F)(F)F)nc1-c1ccc(F)c(Cl)c1)c1ccc(CNS(C)(=O)=O)c(F)c1 [Example 18, (R)—N-((2-(3-chloro-4-fluorophenyl)-6-(trifluoromethyl)pyridin-3-yl)methyl)-2-(3-fluoro-4-(methylsulfonamidomethyl)phenyl)propanamide] | 42
